# Experimental data reported in ChEMBL document CHEMBL1150733, “(+)-Curcuphenol and (+)-Curcudiol, Sesquiterpene Phenols from Shallow and Deep Water Collections of the Marine Sponge Didiscus flavus” (J Nat Prod, 1987).
# Legend:
# P388 = experiment: Cytotoxicity against mouse P388 cells; assay type: functional, cell-based
# A549 = experiment: Cytotoxicity against human A549 cells; assay type: functional
# HCT-8 = experiment: Cytotoxicity against human HCT8 cells; assay type: functional
# [1] = Cytotoxicity against human MDA-MB cells; assay type: functional
# Candida albicans = experiment: Antifungal activity against Candida albicans; assay type: functional
SMILES,IC50 (P388) [µg/mL],MIC (A549) [µg/mL],MIC (HCT-8) [µg/mL],MIC [1] [µg/mL],MIC (Candida albicans) [µg/mL]
CC(C)=CCC[C@H](C)c1ccc(C)cc1O,7,10,0.1,0.1,8
Cc1ccc([C@@H](C)CCCC(C)(C)O)c(O)c1,–,–,–,–,250
